# B1: FGF18: FGF activator, member of the FGF8 subfamily (protein, UniProt O76093 28-207, looked up)
# Fibroblast growth factor 18: EENVDFRIHVENQTRARDDVSRKQLRLYQLYSRTSGKHIQVLGRRISARGEDGDKYAQLLVETDTFGSQVRIKGKETEFYLCMNRKGKLVGKPDGTSKECVFIEKVLENNYTALMSAKYSGWYVGFTKKGRPRKGPKTRENQQDVHFMKRYPKGQPELQKPFKYTTVTKRSRRIRPTHPA
# Columns and labels:
# rodent GSK3β homologs = conditions: cited from earlier work
# [1] = tested on: differentiated mDA cells from hPSC and hiPSC; test: mRNA expression of marker genes in differentiated mDA cells (Wnt-boost protocol with or without FGF18 and/or IWP2); type: cell-based, human
# Protocol: hPSC and hiPSC were used for the differentiation methods. First, the effect of Wnt signaling on ALDH1A1 induction in mDA cells differentiated with different protocols was evaluated. The mRNA expression levels of FOXA2, LMX1A, EN1, WNT1, OTX2, ALDH1A1 and PAX6 were evaluated in day 16-differentiated mDA cells produced using Wnt-boost, Wnt-boost+IWP2 (day 10-day 16), and Wnt-boost+IWP2 (day 12-day 16) protocols, with or without FGF18 (day 12-16) (FIG. 1).
# SMA mRNA expression level was not detectable. The Wnt-boost protocol in combination with FGF18 and IWP2 generated optimal A/P and DN patterned precursors, where more than 90% cells are FOXA2/EN1 double positive (FIG. 2A). […] Furthermore, The mRNA expression levels of FOXA2, LMX1A, OTX2, EN1, ALDH1A1, BARHL2, BARHL1, PAX6, ALDH2, and WNT1 were evaluated at day 16 in differentiated mDA cells produced using Wnt-boost, Wnt-boost+IWP2 (day 12-day 16) protocols, with or without FGF18 (FIG. 3). The effect of IWP2 on the expression of marker genes in the differentiated cells was determined. […] The present disclosure observed the presence of very high quadrupole positive cells at day 16 (FOXA2/LMX1A, OTX2/EN1). […] Additionally, the expression of ALDH1A1, WNT1, PITX3, DAT, DDC, VMTA2 were increased by the addition of IWP2 and FGF18, whereas IWP2 lowered the expression of Ki67, SMA and SIX1. Immuno-staining images of day 60-differentiated cells were collected showing the expression of FOXA2, TH, and MAP2 (FIG. 14A), and EN1 and TH (FIG. 14B).
# The mRNA expression levels of FOXA2, LMX1A, OTX2, EN1, ALDH1A1, WNT1, BARHL1, PAX6, OTX2, and NKX2-2 were evaluated at day 16 in differentiated mDA cells produced using Wnt-boost, Wnt-boost+IWP2 (day 12-day 16) protocols, with or without FGF18. The present disclosure discovered that IWP2 exposure led to increased ALDH1A1 as well as high endogenous WNT1 expression at day 16 both in Wnt Boost and Wnt Boost+FGF18 conditions. Moreover, IWP2 exposure lowered PAX6 and NKX2-2 expression (FIG. 12).
# The mRNA expression of marker genes in sorted day 28-differentiated CD49^weak/CD184^weak cells and CD49^weak/CD184^strong cells were measured (FIGS. 21 and 22).
# hPSC-derived mDA neurons = test: Optimizing WNT inhibition in mDA neuron differentiation (qRT-PCR and ICC); type: cell-based, human
# Text: This example is designed to optimize the temporal window and concentration of the WNT treatment, and to test whether reactivation of non-canonical signaling is required for optimal levels of mDA neuron differentiation or maturation. […] IWP2 inhibits both non-canonical signaling and canonical signaling. The expressions of PITX3, DAT, and VMAT2 are quantified by qRT-PCR and immunocytochemistry (ICC). […] Optimized conditions are validated across hPSC lines (3 hESC and 3 iPSC lines; >3 independent differentiations each) (Zimmer, et al. Proceedings of the National Academy of Sciences of the United States of America 115, […]-[…] (2018)) including male and female lines.
# ALK2, ALK3, and ALK6 = conditions: cited from earlier work
# [2] = day 16, both Wnt Boost and Wnt Boost+FGF18 conditions, IWP2 day 12-day 16
molecule,measurement,setting,value
"Cc1c[nH]c(-c2cnc(NCCNc3ccc(C#N)cn3)nc2-c2ccc(Cl)cc2Cl)n1 [CHIR99021, 6-(2-(4-(2,4-dichlorophenyl)-5-(4-methyl-1H-imidazol-2-yl)pyrimidin-2-ylamino)ethylamino)nicotinonitrile]",IC50 values against rodent GSK3β homologs,rodent GSK3β homologs,nanomolar
Cc1ccc2nc(NC(=O)CSc3nc4c(c(=O)n3-c3ccccc3)SCC4)sc2c1 [IWP2],"expression of Ki67, SMA and SIX1","[1]; Wnt-boost protocol, IWP2 day 12 to day 16",lowered
same,expression of ALDH1A1,"[1]; continued exposure until day 30, day 30-differentiated cells",further induced
same,PAX6 and NKX2-2 expression,"[1]; day 16, IWP2 day 12-day 16",lowered
same,ALDH1A1 expression,[1]; [2],increased
same,endogenous WNT1 expression,[1]; [2],high
same,expression of ALDH1A1,"[1]; exposure from day 12 to day 25, sorted day 28-differentiated cells, confirmed by immunofluorescent staining",further induced
same,effect on the expression of EN1 or the emergence of contaminating markers (SIX1 and SMA),hPSC-derived mDA neurons,does not negatively affect
"c1ccc2c(-c3cnn4cc(-c5ccc(N6CCNCC6)cc5)cnc34)ccnc2c1 [LDN193189, 4-(6-(4-(piperazin-1-yl)phenyl)pyrazolo[1,5-a]pyrimidin-3-yl)quinoline]","inhibitor of ALK2, ALK3, and ALK6","ALK2, ALK3, and ALK6",highly potent
Oc1nc(-c2ccc(C(F)(F)F)cc2)nc2c1CSCC2 [XAV939],inhibition of canonical signaling alone: results comparable to the IWP2 treatment,hPSC-derived mDA neurons; preliminary data (not shown),might not be sufficient
B1,expression of EN1,"[1]; Wnt-boost protocol, FGF18 day 12 to day 16",high expression

# From patent US20230143486A1, “METHODS OF GENERATING MIDBRAIN DOPAMINE NEURONS, MIDBRAIN NEURONS AND USES THEREOF” (MEMORIAL SLOAN-KETTERING CANCER CENTER, priority 2020, published 2023)
